Measured values as given in patent publication US7148249B2, “Indolinones substituted by heterocycles, the preparation thereof and their use as medicaments” (Boehringer Ingelheim Pharma GmbH & Co. KG, priority 2002, dated 2006).

System: Human umbilical endothelial cells (HUVEC)
Experiment: Inhibition of VEGF165-stimulated HUVEC proliferation (3H-thymidine incorporation)
Format: cell-based
Settings: HUVEC proliferation stimulated with 5 ng/ml VEGF165 and 10 μg/ml heparin; 76 h incubation + 16 h 3H-thymidine
Procedure: Human umbilical endothelial cells (HUVEC) were cultivated in IMDM (Gibco BRL), supplemented with 10% foetal calf serum (FBS) (Sigma), 50 μM of β-mercaptoethanol (Fluka), standard antibiotics, 15 μg/ml of endothelial cell growth factor (ECGS, Collaborative Biomedical Products) and 100 μg/ml of heparin (Sigma) on gelatine-coated culture dishes (0.2% gelatine, Sigma) at 37° C., under 5% CO2 in a water-saturated atmosphere.
In order to investigate the inhibitory activity of the compounds according to the invention the cells were “starved” for 16 hours, i.e. kept in culture medium without growth factors (ECGS+heparin). The cells were detached from the culture dishes using trypsin/EDTA and washed once in serum-containing medium. Then they were seeded out in amounts of 2.5×10^3 cells per well.
The proliferation of the cells was stimulated with 5 ng/ml of VEGF165 (vascular endothelial growth factor; H. Weich, GBF Braunschweig) and 10 μg/ml of heparin. As a control, 6 wells in each dish were not stimulated.
The compounds according to the invention were dissolved in 100% dimethylsulphoxide and added to the cultures in various dilutions as triple measurements, the maximum dimethylsulphoxide concentration being 0.3%.
The cells were incubated for 76 hours at 37° C., then for a further 16 hours ^3H-thymidine (0.1 μCi/well, Amersham) was added in order to determine the DNA synthesis. Then the radioactively labelled cells were immobilised on filter mats and the radioactivity incorporated was measured in a β-counter. In order to determine the inhibitory activity of the compounds according to the invention the mean value of the non-stimulated cells was subtracted from the mean value of the factor-stimulated cells (in the presence or absence of the compounds according to the invention).
The relative cell proliferation was calculated as a percentage of the control (HUVEC without inhibitor) and the concentration of active substance which inhibits the proliferation of the cells by 50% (IC50) was determined.

| Compound | IC50 |
| --- | --- |
| 3-(Z)-{1-(4-[N-acetyl-N-(2-dimethylaminoethyl)-amino]-phenylamino)-1-(3,4-(difluoromethylenedioxy)phenyl)-methylene}-6-chloro-2-indolinone [(al)] | 83 nM |
| Cn1cnc2cc(/C(Nc3ccc(N4CCCC4=O)cc3)=C3/C(=O)Nc4cc(F)ccc43)ccc21 [(as), 3-(Z)-{1-[4-(pyrrolid-2-on-1-yl)-phenylamino]-1-(1-methyl-benzimidazol-5-yl)-methylene}-6-fluoro-2-indolinone] | 18 nM |
| CN(C)CCN(c1ccc(N/C(=C2\C(=O)Nc3cc(Cl)ccc32)c2ccc3c(c2)OCCO3)cc1Cl)S(C)(=O)=O [(ba), 6-chloro-3-(Z)-[1-(4-{N-(2-dimethylamino-ethyl)-N-methanesulphonyl-amino}-3-chloro-phenylamino)-1-(1,2-ethylenedioxyphen-4-yl)-methylene]-2-indolinone] | 30 nM |
| COc1cc(N/C(=C2\C(=O)Nc3cc(Cl)ccc32)c2ccc3c(c2)OCCO3)ccc1N(C)C(=O)CN(C)C [(bb), 6-chloro-3-(Z)-{1-[4-(N-dimethylaminomethylcarbonyl-N-methyl-amino)-3-methoxy-phenylamino]-1-(1,2-ethylenedioxyphen-4-yl)-methylene}-2-indolinone] | 33 nM |
| COc1cc(N/C(=C2\C(=O)Nc3cc(F)ccc32)c2ccc3c(c2)OCCO3)ccc1N(C)C(=O)CN(C)C [(bc), 6-fluoro-3-(Z)-{1-[4-(N-dimethylaminomethylcarbonyl-N-methyl-amino)-3-methoxy-phenylamino]-1-(1,2-ethylenedioxyphen-4-yl)-methylene}-2-indolinone] | 5 nM |
| CN(C)CCN(c1ccc(N/C(=C2\C(=O)Nc3cc(F)ccc32)c2ccc3c(c2)OCCO3)cc1Cl)S(C)(=O)=O [(bd), 6-fluoro-3-(Z)-[1-(4-{N-(2-dimethylamino-ethyl)-N-methanesulphonyl-amino}-3-chloro-phenylamino)-1-(1,2-ethylenedioxyphen-4-yl)-methylene]-2-indolinone] | 5 nM |

Same assay, conditions: Homo sapiens; HUVEC proliferation stimulated with 5 ng/ml VEGF165 and 10 μg/ml heparin; 76 h incubation + 16 h 3H-thymidine

| Compound | IC50 |
| --- | --- |
| CN(C)Cc1ccc(N/C(=C2\C(=O)Nc3cc(Cl)ccc32)c2ccc3c(c2)OCO3)cc1 [(a), 3-(Z)-{1-[4-(dimethylaminomethyl)-phenylamino]-1-(3,4-methylenedioxyphenyl)-methylene}-6-chloro-2-indolinone] | 11 nM |
| CCC(=O)N(CCN(C)C)c1ccc(N/C(=C2\C(=O)Nc3cc(F)ccc32)c2ccc3c(c2)OCCO3)cc1 [(aa), 3-(Z)-{1-(4-[N-propionyl-N-(2-dimethylaminoethyl)-amino]-phenylamino)-1-(3,4-ethylenedioxyphenyl)-methylene}-6-fluoro-2-indolinone] | 0.6 nM |
| CN(C)CCN(c1ccc(N/C(=C2\C(=O)Nc3cc(F)ccc32)c2ccc3c(c2)OCCO3)cc1)S(C)(=O)=O [(ab), 3-(Z)-{1-(4-[N-methanesulphonyl-N-(2-dimethylaminoethyl)-amino]-phenylamino)-1-(3,4-ethylenedioxyphenyl)-methylene}-6-fluoro-2-indolinone] | 1 nM |
| COC(=O)c1ccc2c(c1)NC(=O)/C2=C(\Nc1ccc(N(CCN(C)C)C(C)=O)cc1)c1ccc2c(c1)OCCO2 [(ac), 3-(Z)-{1-(4-[N-acetyl-N-(2-dimethylaminoethyl)-amino]-phenylamino)-1-(3,4-ethylenedioxyphenyl)-methylene}-6-methoxycarbonyl-2-indolinone] | 0.2 nM |
| COC(=O)c1ccc2c(c1)NC(=O)/C2=C(\Nc1ccc(C(=O)N(C)CCN(C)C)cc1)c1ccc2c(c1)OCCO2 [(ad), 3-(Z)-{1-(4-[N-methyl-N-(2-dimethylaminoethyl)aminocarbonyl]-phenylamino)-1-(3,4-ethylenedioxyphenyl)-methylene}-6-methoxycarbonyl-2-indolinone] | 0.4 nM |
| COC(=O)c1ccc2c(c1)NC(=O)/C2=C(\Nc1ccc(C(=O)N(C)CCCN(C)C)cc1)c1ccc2c(c1)OCCO2 [(ae), 3-(Z)-{1-(4-[N-methyl-N-(3-dimethylaminopropyl)aminocarbonyl]-phenylamino)-1-(3,4-ethylenedioxyphenyl)-methylene}-6-methoxycarbonyl-2-indolinone] | 0.5 nM |
| COC(=O)c1ccc2c(c1)NC(=O)/C2=C(\Nc1ccc(C(=O)N(C)CCN(C)C)cc1)c1ccc2c(c1)OCO2 [(af), 3-(Z)-{1-(4-[N-methyl-N-(2-dimethylaminoethyl)aminocarbonyl]-phenylamino)-1-(3,4-methylenedioxyphenyl)-methylene}-6-methoxycarbonyl-2-indolinone] | 0.5 nM |
| CN1CCN(Cc2ccc(N/C(=C3\C(=O)Nc4cc(C(=O)N(C)C)ccc43)c3ccc4c(c3)OCCO4)cc2)CC1 [(ah), 3-(Z)-{1-(4-[1-methyl-piperazin-4-yl-methyl]-phenylamino)-1-(3,4-ethylenedioxy-phenyl)-methylene}-6-dimethylaminocarbonyl-2-indolinone] | 100 nM |
| CN1CCC(N(C)C(=O)c2ccc(N/C(=C3\C(=O)Nc4cc(F)ccc43)c3ccc4c(c3)OCCO4)cc2)CC1 [(am), 3-(Z)-{1-(4-[N-methyl-N-(1-methyl-4-piperidinyl)-aminocarbonyl]-phenylamino)-1-(3,4-ethylenedioxyphenyl)-methylene}-6-fluoro-2-indolinone] | 5 nM |
| CN(C)CC(=O)N(C)c1ccc(N/C(=C2\C(=O)Nc3ccccc32)c2ccoc2)cc1 [(an), 3-(Z)-{1-(4-[N-methyl-N-(dimethylaminomethylcarbonyl)-amino]-phenylamino)-1-(3-furyl)-methylene}-2-indolinone] | 58 nM |
| CN(C)CCN(C(=O)c1cccnc1)c1ccc(N/C(=C2\C(=O)Nc3cc(Cl)ccc32)c2ccc3c(c2)OCO3)cc1 [(ao), 3-(Z)-{1-(4-[N-(3-pyridylcarbonyl)-N-(2-dimethylaminoethyl)-amino]-phenyl-amino)-1-(3,4-methylenedioxyphenyl)-methylene}-6-chloro-2-indolinone] | 6 nM |
| CCN(CC)CCS(=O)(=O)c1ccc(N/C(=C2\C(=O)Nc3cc(Cl)ccc32)c2ccc3c(c2)OCO3)cc1 [(ap), 3-(Z)-{1-(4-[2-(diethylamino)ethyl-sulphonyl]-phenylamino)-1-(3,4-methylenedioxyphenyl)-methylene}-6-chloro-2-indolinone] | 120 nM |
| CN(C)Cc1ccc(N/C(=C2\C(=O)Nc3ccccc32)c2ccc3c(c2)ncn3C)cc1 [(aq), 3-(Z)-{1-[4-(dimethylaminomethyl)-phenylamino]-1-(1-methyl-benzimidazol-5-yl)-methylene}-2-indolinone] | 24 nM |
| Cn1ccnc1-c1ccc(N/C(=C2\C(=O)Nc3cc(Cl)ccc32)c2ccc3nccnc3c2)cc1 [(ar), 3-(Z)-{1-(4-[1-methylimidazol-2-yl]-phenylamino)-1-(quinoxalin-6-yl)-methylene}-6-chloro-2-indolinone] | 71 nM |
| Cc1cc(C)n(-c2ccc(N/C(=C3\C(=O)Nc4cc(F)ccc43)c3ccc4c(c3)ncn4C)cc2)n1 [(at), 3-(Z)-{1-[4-(3,5-dimethyl-pyrazol-1-yl)-phenylamino]-1-(1-methyl-benzimidazol-5-yl)-methylene}-6-fluoro-2-indolinone] | 30 nM |
| CN(C)CCN(C)S(=O)(=O)c1ccc(N/C(=C2\C(=O)Nc3cc(F)ccc32)c2ccc3c(c2)ncn3C)cc1 [(au), 3-(Z)-{1-[4-(N-methyl-N-{2-dimethylamino-ethyl}-aminosulphonyl)-phenylamino]-1-(1-methyl-benzimidazol-5-yl)-methylene}-6-fluoro-2-indolinone] | 13 nM |
| CN(C)Cc1ccc(N/C(=C2\C(=O)Nc3ccccc32)c2ccc3c(c2)nnn3C)cc1 [(av), 3-(Z)-{1-[4-(dimethylaminomethyl)-phenylamino]-1-(1-methyl-benzotriazol-5-yl)-methylene}-2-indolinone] | 94 nM |
| CN1CCN(C(=O)Cc2ccc(N/C(=C3\C(=O)Nc4cc(F)ccc43)c3ccc4c(c3)OCCO4)cc2)CC1 [(aw), 3-(Z)-{1-(4-[(1-methyl-piperazin-4-yl)-carbonylmethyl]-phenylamino)-1-(3,4-ethylenedioxyphenyl)-methylene}-6-fluoro-2-indolinone] | 4 nM |
| CN1CCN(CC(=O)N(C)c2ccc(N/C(=C3\C(=O)Nc4cc(Cl)ccc43)c3ccc4c(c3)OCO4)cc2)CC1 [(az), 3-(Z)-{1-(4-[N-methyl-N-(4-methylpiperazin-1-yl-methylcarbonyl)-amino]-phenyl-amino)-1-(3,4-methylenedioxyphenyl)-methylene}-6-chloro-2-indolinone] | 6 nM |
| CN1CCN(CC(=O)N(C)c2ccc(N/C(=C3\C(=O)Nc4cc(Cl)ccc43)c3ccc4nccnc4c3)cc2)CC1 [(b), 3-(Z)-{1-(4-[N-methyl-N-(4-methylpiperazin-1-yl-methylcarbonyl)-amino]-phenyl-amino)-1-(quinoxalin-6-yl)-methylene}-6-chloro-2-indolinone] | 4 nM |
